# ChEMBL document CHEMBL3044921, “Synthesis, characterization, and SAR studies of new (1H-indol-3-yl)alkyl-3-(1H-indol-3-yl)propanamide derivatives as possible antimicrobial and antitubercular agents” (2013)
# Key:
# Aspergillus flavus [1] = assay: Antifungal activity against Aspergillus flavus NCIM 524 assessed as growth inhibition at […] to […] ug/ml after 3 to 4 days by agar well diffusion method; assay type: functional
# [2] = system: Mycobacterium tuberculosis; assay: Antitubercular activity against Mycobacterium tuberculosis H37Rv ATCC 27294 assessed as growth inhibition at 0.3125 to 5 ug/mL after 7 days by resazurin reduction test; assay type: functional; conditions: H37Rv ATCC 27294, 168 h
# Escherichia coli [3] = assay type: functional, ATCC 24922
# Description: Antibacterial activity against Escherichia coli ATCC 24922 assessed as growth inhibition at 1.56 to 25 ug/ml after 3 to 4 days by agar well diffusion method
# Aspergillus fumigatus [4] = assay: Antifungal activity against Aspergillus fumigatus NCIM 902 assessed as growth inhibition at […] to […] ug/ml after 3 to 4 days by agar well diffusion method; assay type: functional
# Aspergillus flavus [5] = assay: Antifungal activity against Aspergillus flavus NCIM 524 assessed as growth inhibition after 3 to 4 days by serial plate dilution method; assay type: functional
# Talaromyces marneffei [6] = assay: Antifungal activity against Talaromyces marneffei assessed as growth inhibition after 3 to 4 days by serial plate dilution method; assay type: functional
# [7] = system: Mycolicibacterium fortuitum; assay: Antitubercular activity against Mycobacterium fortuitum ATCC 19542 assessed as growth inhibition at 1 to 100 ug/mL after 7 days by resazurin reduction test; assay type: functional; conditions: ATCC 19542, 168 h
# [8] = system: Mycolicibacterium smegmatis; assay: Antitubercular activity against Mycobacterium smegmatis ATCC 19420 assessed as growth inhibition at 0.3125 to 5 ug/mL after 7 days by resazurin reduction test; assay type: functional; conditions: ATCC 19420, 168 h
# Klebsiella pneumoniae [9] = assay: Antibacterial activity against Klebsiella pneumoniae assessed as growth inhibition after 16 to 18 hr by serial plate dilution method; assay type: functional
# Aspergillus fumigatus [10] = assay: Antifungal activity against Aspergillus fumigatus NCIM 902 assessed as growth inhibition after 3 to 4 days by serial plate dilution method; assay type: functional
# Pseudomonas aeruginosa [11] = assay: Antibacterial activity against Pseudomonas aeruginosa ATCC 27853 assessed as growth inhibition after 16 to 18 hr by serial plate dilution method; assay type: functional
# [12] = system: Mycolicibacterium fortuitum; assay: Antitubercular activity against Mycobacterium fortuitum ATCC 19542 assessed as growth inhibition at 0.3125 to 5 ug/mL after 7 days by resazurin reduction test; assay type: functional; conditions: ATCC 19542, 168 h
# [13] = system: Trichophyton mentagrophytes; assay: Antifungal activity against Trichophyton mentagrophytes assessed as growth inhibition after 3 to 4 days by serial plate dilution method; assay type: functional
# Talaromyces marneffei [14] = assay: Antifungal activity against Talaromyces marneffei assessed as growth inhibition at […] to […] ug/ml after 3 to 4 days by agar well diffusion method; assay type: functional
# Streptococcus pyogenes [15] = assay type: functional
# Description: Antibacterial activity against Streptococcus pyogenes assessed as growth inhibition at 1.56 to 25 ug/ml after 3 to 4 days by agar well diffusion method
# [16] = system: Trichophyton mentagrophytes; assay: Antifungal activity against Trichophyton mentagrophytes assessed as growth inhibition at […] to […] ug/ml after 3 to 4 days by agar well diffusion method; assay type: functional
# Staphylococcus aureus [17] = assay type: functional, ATCC 25923
# Description: Antibacterial activity against Staphylococcus aureus ATCC 25923 assessed as growth inhibition at 1.56 to 25 ug/ml after 3 to 4 days by agar well diffusion method
# Candida albicans [18] = assay: Antifungal activity against Candida albicans assessed as growth inhibition after 3 to 4 days by serial plate dilution method; assay type: functional
# Candida albicans [19] = assay: Antifungal activity against Candida albicans assessed as growth inhibition at […] to […] ug/ml after 3 to 4 days by agar well diffusion method; assay type: functional
# Pseudomonas aeruginosa [20] = assay type: functional, ATCC 27853
# Description: Antibacterial activity against Pseudomonas aeruginosa ATCC 27853 assessed as growth inhibition at 1.56 to 25 ug/ml after 3 to 4 days by agar well diffusion method
# Streptococcus pyogenes [21] = assay: Antibacterial activity against Streptococcus pyogenes assessed as growth inhibition after 16 to 18 hr by serial plate dilution method; assay type: functional
# Klebsiella pneumoniae [22] = assay type: functional
# Description: Antibacterial activity against Klebsiella pneumoniae assessed as growth inhibition at 1.56 to 25 ug/ml after 3 to 4 days by agar well diffusion method
# [23] = system: Mycolicibacterium smegmatis; assay: Antitubercular activity against Mycobacterium smegmatis ATCC 19420 assessed as growth inhibition at 1 to 100 ug/mL after 7 days by resazurin reduction test; assay type: functional; conditions: ATCC 19420, 168 h
# Escherichia coli [24] = assay: Antibacterial activity against Escherichia coli […] assessed as growth inhibition after 16 to 18 hr by serial plate dilution method; assay type: functional
# Staphylococcus aureus [25] = assay: Antibacterial activity against Staphylococcus aureus ATCC 25923 assessed as growth inhibition after 16 to 18 hr by serial plate dilution method; assay type: functional
# [26] = system: Mycobacterium tuberculosis; assay: Antitubercular activity against Mycobacterium tuberculosis H37Rv ATCC 27294 assessed as growth inhibition at 1 to 100 ug/mL after 7 days by resazurin reduction test; assay type: functional; conditions: for MIC: Mycobacterium tuberculosis, H37Rv ATCC 27294, 168 h
SMILES,diameter of the inhibition zone (DIZ) (Aspergillus flavus [1]) [mm],MIC [2] [µg/mL],diameter of the inhibition zone (DIZ) (Escherichia coli [3]) [mm],diameter of the inhibition zone (DIZ) (Aspergillus fumigatus [4]) [mm],MIC (Aspergillus flavus [5]) [µg/mL],MIC (Talaromyces marneffei [6]) [µg/mL],MIC [7] [µg/mL],MIC [8] [µg/mL],MIC (Klebsiella pneumoniae [9]) [µg/mL],MIC (Aspergillus fumigatus [10]) [µg/mL],MIC (Pseudomonas aeruginosa [11]) [µg/mL],MIC [12] [µg/mL],MIC [13] [µg/mL],diameter of the inhibition zone (DIZ) (Talaromyces marneffei [14]) [mm],diameter of the inhibition zone (DIZ) (Streptococcus pyogenes [15]) [mm],diameter of the inhibition zone (DIZ) [16] [mm],diameter of the inhibition zone (DIZ) (Staphylococcus aureus [17]) [mm],MIC (Candida albicans [18]) [µg/mL],diameter of the inhibition zone (DIZ) (Candida albicans [19]) [mm],diameter of the inhibition zone (DIZ) (Pseudomonas aeruginosa [20]) [mm],other results
Cn1cc(CCC(=O)NCc2c[nH]c3ccc(Cl)cc23)c2cc(Cl)ccc21,16,0.625,16,16,6.25,6.25,10,10,6.25,6.25,25,10,6.25,16,16,16,16,6.25,16,<10,MIC (Streptococcus pyogenes [21]): 6.25 µg/mL; diameter of the inhibition zone (DIZ) (Klebsiella pneumoniae [22]): 16 mm; MIC [23]: 10 µg/mL; MIC (Escherichia coli [24]): 6.25 µg/mL; MIC (Staphylococcus aureus [25]): 6.25 µg/mL; growth inhibition (GI) [26]: 95%; MIC [26]: 1 µg/mL
Cc1[nH]c2ccc(OC(F)(F)F)cc2c1CCCNC(=O)CCc1c[nH]c2ccc(Cl)cc12,16,2.5,16,16,6.25,6.25,10,10,6.25,6.25,6.25,10,6.25,16,16,16,16,6.25,16,16,MIC (Streptococcus pyogenes [21]): 6.25 µg/mL; diameter of the inhibition zone (DIZ) (Klebsiella pneumoniae [22]): 16 mm; MIC [23]: 10 µg/mL; MIC (Escherichia coli [24]): 6.25 µg/mL; MIC (Staphylococcus aureus [25]): 6.25 µg/mL; growth inhibition (GI) [26]: <90%; MIC [26]: 10 µg/mL
Cn1cc(CCC(=O)NCCCc2c[nH]c3ccc(OC(F)(F)F)cc23)c2cc(Cl)ccc21,11,0.625,11,11,12.5,25,10,10,12.5,12.5,12.5,10,25,<10,16,<10,16,6.25,16,11,MIC (Streptococcus pyogenes [21]): 6.25 µg/mL; diameter of the inhibition zone (DIZ) (Klebsiella pneumoniae [22]): 11 mm; MIC [23]: 10 µg/mL; MIC (Escherichia coli [24]): 12.5 µg/mL; MIC (Staphylococcus aureus [25]): 6.25 µg/mL; growth inhibition (GI) [26]: 95%; MIC [26]: 1 µg/mL
